Measurements published in ChEMBL document CHEMBL1201862, “PubChem BioAssay data set” (2004).
Active and inactive are the calls of the source.

What was measured:
[1] = system: HEK293; experiment: cells; type: functional, cell-based; details: Homo sapiens
[2] = system: HEK293; experiment: NOD2 signaling inhibitors in MDP-stimulated cells, cell-based, uHTS, luminescence (AID 2001); type: functional; details: Homo sapiens
[3] = system: HEK293; experiment: cells; type: functional, cell-based; details: Homo sapiens; remark: listed apart in the source
[4] = system: HEK293; experiment: NOD1 signaling inhibitors, primary screen, cell-based, luminescence, uHTS (AID 1578); type: functional; details: Homo sapiens
[5] = inhibitors of SNCA 5'UTR-driven reporter translation, confirmation, H4 neuroglioma cells, luminescence (AID 1988); type: functional, cell-based
[6] = inhibitors of firefly luciferase expression or activity, dose response, H4 neuroglioma cells, luminescence (AID 1990); type: functional, cell-based
[7] = system: HEK293; experiment: cells; details: Homo sapiens
[8] = system: HEK293; experiment: cells; details: Homo sapiens; remark: listed apart in the source
[9] = Luminescence Cell-Based Dose Response HTS to Identify Inhibitors of 5'UTR Stem-Loop Driven Prion Protein mRNA Translation in H4 Neuroglioblastoma Cells. [Related pubchem assays: 1827 (Project Summary), 1813 (Primary HTS)]; type: functional
[10] = system: Escherichia coli; experiment: microbe, parasite or virus in culture
[11] = target: 5-hydroxytryptamine receptor 5A (Homo sapiens, UniProt P47898); experiment: Counterscreen for agonists of OPRM1-OPRD1 heterodimerization: luminescence-based cell-based high throughput dose response assay to identify agonists of 5-hydroxytryptamine (serotonin) 5A receptor (HTR5A). [Related pubchem assays (depositor defined):AID504326, AID504355, AID504692, AID504904, AID504905]; type: functional
5-hydroxytryptamine receptor 5A, sequence (P47898 whole entry): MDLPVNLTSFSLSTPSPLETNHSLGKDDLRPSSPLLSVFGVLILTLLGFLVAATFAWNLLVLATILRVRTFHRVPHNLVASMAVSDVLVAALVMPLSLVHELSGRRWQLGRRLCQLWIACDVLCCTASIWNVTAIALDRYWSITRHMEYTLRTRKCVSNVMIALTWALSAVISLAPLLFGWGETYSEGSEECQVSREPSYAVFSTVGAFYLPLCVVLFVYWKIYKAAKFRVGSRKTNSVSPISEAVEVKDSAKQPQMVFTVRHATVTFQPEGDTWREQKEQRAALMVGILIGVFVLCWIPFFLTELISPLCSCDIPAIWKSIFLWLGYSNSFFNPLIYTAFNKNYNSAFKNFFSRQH

[12] = target: Mu-type opioid receptor (Homo sapiens, UniProt P35372); experiment: (§1) Counterscreen for agonists of heterodimerization of the mu 1 (OPRM1) and delta 1 (OPRD1) opioid receptors: Luminescence-based cell-based high throughput dose response assay to identify agonists of OPRM1 homodimerization.; type: functional
Mu-type opioid receptor, sequence (P35372 whole entry): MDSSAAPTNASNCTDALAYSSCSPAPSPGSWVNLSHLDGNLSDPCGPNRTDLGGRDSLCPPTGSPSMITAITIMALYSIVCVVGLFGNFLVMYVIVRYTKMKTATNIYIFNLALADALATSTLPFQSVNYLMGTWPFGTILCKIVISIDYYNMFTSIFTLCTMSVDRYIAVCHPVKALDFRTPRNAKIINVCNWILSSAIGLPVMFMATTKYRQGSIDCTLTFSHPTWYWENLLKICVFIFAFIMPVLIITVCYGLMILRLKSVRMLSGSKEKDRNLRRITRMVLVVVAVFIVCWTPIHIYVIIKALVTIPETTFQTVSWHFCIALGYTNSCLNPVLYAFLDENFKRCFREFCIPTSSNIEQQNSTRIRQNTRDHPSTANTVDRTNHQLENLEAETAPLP

[13] = target: Delta-type opioid receptor (Homo sapiens, UniProt P41143); experiment: as §1, with “of OPRD1” for “of OPRM1”, “homodimerization. [Related pubchem assays (depositor defined):AID504326, AID504355, AID504692, AID504904, AID504905]” for “homodimerization.”; type: functional
Delta-type opioid receptor, sequence (P41143 whole entry): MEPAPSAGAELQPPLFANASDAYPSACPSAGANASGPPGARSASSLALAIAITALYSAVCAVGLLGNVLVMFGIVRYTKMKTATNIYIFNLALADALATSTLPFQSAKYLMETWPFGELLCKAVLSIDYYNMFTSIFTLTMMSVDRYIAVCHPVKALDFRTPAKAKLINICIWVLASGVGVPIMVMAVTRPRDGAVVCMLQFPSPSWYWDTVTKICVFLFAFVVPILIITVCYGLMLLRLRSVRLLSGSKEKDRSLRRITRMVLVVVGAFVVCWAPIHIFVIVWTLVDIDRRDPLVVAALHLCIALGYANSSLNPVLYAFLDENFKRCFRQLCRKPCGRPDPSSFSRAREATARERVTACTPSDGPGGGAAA

[14] = target: Cytochrome P450 2D6 (Homo sapiens, UniProt P10635);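 further: CYP2D6 member of a cytochrome P450 panel assay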
Cytochrome P450 2D6, sequence (P10635 whole entry): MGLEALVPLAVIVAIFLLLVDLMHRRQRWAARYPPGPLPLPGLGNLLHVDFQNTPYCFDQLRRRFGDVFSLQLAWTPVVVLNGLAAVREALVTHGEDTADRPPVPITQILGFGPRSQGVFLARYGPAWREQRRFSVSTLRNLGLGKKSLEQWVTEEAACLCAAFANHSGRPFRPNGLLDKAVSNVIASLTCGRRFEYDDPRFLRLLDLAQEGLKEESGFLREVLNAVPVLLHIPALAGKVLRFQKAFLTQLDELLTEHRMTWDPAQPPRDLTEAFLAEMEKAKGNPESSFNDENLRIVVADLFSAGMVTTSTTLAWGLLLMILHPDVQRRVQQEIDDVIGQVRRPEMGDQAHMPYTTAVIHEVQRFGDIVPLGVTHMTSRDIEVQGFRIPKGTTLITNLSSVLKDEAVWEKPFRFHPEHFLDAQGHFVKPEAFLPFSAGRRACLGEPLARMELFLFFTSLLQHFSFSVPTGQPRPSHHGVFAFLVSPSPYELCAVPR

[15] = target: T1, Zinc finger protein mex-5 (Caenorhabditis elegans, UniProt Q9XUB2); experiment: MEX-5/TCR-2 RNA interaction inhibitors, dose response, biochemical, C. elegans, fluorescence polarization (AID 1960)
T1 sequence (Q9XUB2 whole entry): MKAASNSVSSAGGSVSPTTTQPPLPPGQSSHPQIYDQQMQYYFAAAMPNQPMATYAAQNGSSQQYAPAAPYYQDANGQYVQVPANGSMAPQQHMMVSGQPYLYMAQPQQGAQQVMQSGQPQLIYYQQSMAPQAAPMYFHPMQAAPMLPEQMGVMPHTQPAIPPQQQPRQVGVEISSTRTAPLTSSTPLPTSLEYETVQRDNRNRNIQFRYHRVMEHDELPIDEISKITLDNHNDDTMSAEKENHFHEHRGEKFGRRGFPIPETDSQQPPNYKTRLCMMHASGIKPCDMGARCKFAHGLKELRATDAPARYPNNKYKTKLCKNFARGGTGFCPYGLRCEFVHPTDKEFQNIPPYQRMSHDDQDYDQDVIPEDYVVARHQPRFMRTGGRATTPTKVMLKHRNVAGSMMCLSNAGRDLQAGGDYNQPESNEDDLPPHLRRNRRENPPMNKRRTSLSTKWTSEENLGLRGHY

[16] = target: T2, Endoribonuclease toxin MazF (Escherichia coli K-12, UniProt P0AE70); experiment: MazF toxin RNase activators, dose response, biochemical, fluorescence, single-stranded RNA substrate, uHTS hits (AID 588481); type: functional
T2 sequence (P0AE70 whole entry): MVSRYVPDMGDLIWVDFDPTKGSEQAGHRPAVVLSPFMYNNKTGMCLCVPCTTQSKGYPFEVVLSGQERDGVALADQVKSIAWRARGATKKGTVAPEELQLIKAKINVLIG

[17] = target: T3, RNA-binding protein pos-1 (Caenorhabditis elegans, UniProt G5EF15); experiment: inhibitors of POS-1/mex-3 RNA binding, dose response, biochemical, fluorescence polarization (AID 1964);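 further: purified POS-1 fused to maltose binding protein made in E. coli; potency of compounds blocking POS-1 binding to fluorescent RNA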
T3 sequence (G5EF15 whole entry): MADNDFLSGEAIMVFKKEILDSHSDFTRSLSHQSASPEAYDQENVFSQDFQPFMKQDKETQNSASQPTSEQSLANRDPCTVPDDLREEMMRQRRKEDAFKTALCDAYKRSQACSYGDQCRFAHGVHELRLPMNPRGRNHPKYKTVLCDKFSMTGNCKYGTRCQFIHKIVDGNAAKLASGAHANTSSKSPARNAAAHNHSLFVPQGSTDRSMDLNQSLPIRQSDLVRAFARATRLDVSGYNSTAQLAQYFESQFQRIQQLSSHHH

[18] = target: T2, Endoribonuclease toxin MazF; experiment: fluorescent RNA oligo signal without MazF, dose response, counter-screen for MazEF activator project, biochemical, fluorescence, single-stranded RNase substrate (AID 588502); type: functional
[19] = C. albicans growth with fluconazole, confirmation, fluorescence, retest (AID 2467); type: functional, cell-based
[20] = NIH-3T3 fibroblast cytotoxicity, dose response, cytotoxicity control, cell-based, fluorescence, Alamar Blue, secondary assay (AID 2327); type: functional;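 further: NIH-3T3 mouse fibroblasts cultured with fluconazole at 8 µg/mL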
[21] = target: T4, Galanin receptor type 3 (Homo sapiens, UniProt O60755); experiment: Fluorescence-based cell-based primary high throughput dose response assay to identify antagonists of the Galanin Receptor 3 (GalR3).; type: functional
T4 sequence (O60755 whole entry): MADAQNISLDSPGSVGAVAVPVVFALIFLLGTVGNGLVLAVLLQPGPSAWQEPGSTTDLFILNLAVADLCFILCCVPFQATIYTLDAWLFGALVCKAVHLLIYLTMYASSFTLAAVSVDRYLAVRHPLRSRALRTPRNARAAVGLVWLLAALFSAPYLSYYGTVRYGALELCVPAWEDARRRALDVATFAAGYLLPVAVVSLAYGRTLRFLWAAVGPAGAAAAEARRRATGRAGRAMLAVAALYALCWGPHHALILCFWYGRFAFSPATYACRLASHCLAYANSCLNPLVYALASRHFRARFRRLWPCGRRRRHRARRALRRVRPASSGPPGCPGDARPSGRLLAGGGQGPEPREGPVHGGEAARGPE

[22] = cells; type: functional, cell-based; details: HEK-CNG
[23] = target: T5, Cytochrome P450 1A2 (Homo sapiens, UniProt P05177);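 further: PubChem cytochrome P450 panel assay, CYP1A2 panel member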
T5 sequence (P05177 whole entry): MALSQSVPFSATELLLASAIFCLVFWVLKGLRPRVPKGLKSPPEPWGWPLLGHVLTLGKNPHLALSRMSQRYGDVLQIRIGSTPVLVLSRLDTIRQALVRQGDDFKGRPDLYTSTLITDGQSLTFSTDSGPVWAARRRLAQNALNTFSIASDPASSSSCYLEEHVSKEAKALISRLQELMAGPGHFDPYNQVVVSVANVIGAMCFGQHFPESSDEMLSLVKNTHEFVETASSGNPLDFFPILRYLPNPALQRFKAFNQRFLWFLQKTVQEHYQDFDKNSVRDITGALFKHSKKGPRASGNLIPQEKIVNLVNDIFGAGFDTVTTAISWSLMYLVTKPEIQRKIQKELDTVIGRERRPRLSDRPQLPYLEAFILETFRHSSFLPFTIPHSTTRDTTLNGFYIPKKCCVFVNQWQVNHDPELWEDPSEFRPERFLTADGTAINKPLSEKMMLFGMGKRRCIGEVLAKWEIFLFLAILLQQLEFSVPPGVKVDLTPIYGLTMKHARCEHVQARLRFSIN

[24] = target: Cytochrome P450 2C19 (Homo sapiens, UniProt P33261); experiment: Cytochrome panel assay with activity outcomes. Panel member name: p450-cyp2c19 Compounds with AC50 equal or less than 10 uM are considered active; type: functional; details: read-out: AC50
Cytochrome P450 2C19, sequence (P33261 whole entry): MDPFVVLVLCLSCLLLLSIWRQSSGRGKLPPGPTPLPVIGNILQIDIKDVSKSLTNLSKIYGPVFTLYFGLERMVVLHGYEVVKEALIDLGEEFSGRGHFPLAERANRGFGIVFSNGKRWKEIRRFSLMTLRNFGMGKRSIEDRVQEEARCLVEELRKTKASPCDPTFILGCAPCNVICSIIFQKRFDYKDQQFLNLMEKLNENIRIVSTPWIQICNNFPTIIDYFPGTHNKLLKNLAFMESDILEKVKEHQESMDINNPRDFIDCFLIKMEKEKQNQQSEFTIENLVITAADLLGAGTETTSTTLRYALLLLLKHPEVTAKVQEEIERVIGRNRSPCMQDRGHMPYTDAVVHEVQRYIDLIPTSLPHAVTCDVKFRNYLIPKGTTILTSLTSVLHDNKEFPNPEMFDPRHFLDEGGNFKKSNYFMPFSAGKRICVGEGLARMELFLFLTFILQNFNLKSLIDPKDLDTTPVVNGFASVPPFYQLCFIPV

[25] = target: Cytochrome P450 3A4 (Homo sapiens, UniProt P08684);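 further: CYP3A4 tested as one member of a cytochrome P450 panel screen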
Cytochrome P450 3A4, sequence (P08684 whole entry): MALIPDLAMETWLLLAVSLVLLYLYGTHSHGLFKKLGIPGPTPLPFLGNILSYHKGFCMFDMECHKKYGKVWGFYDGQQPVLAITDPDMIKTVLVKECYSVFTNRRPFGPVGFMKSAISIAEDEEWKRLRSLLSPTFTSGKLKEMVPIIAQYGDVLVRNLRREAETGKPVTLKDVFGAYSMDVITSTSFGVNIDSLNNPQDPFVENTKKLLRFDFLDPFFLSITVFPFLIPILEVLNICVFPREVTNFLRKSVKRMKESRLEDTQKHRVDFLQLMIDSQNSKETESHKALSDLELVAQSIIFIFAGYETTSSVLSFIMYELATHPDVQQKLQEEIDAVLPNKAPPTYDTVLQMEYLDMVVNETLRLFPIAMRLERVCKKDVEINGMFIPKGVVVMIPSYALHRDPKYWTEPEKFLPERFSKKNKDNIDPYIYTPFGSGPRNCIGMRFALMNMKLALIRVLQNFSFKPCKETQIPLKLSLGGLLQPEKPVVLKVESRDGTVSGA

For `O=C(Nc1ccc(Br)c2ccccc12)c1ccc2ccccc2c1O`, the IC50 [1] was 2.6 µM (active), the IC50 [2] was 1.91 µM (active) and the IC50 [3] was 13.7 µM (active). For the same compound, the EC50 [4] was 0.79 µM (active).
In the case of `COc1ccc(-c2nn3c(C4CCCCC4)nnc3s2)cc1OC`, the EC50 [5] is reported as 13.5 µM (active), the EC50 [6] is reported as 15.5 µM (active) and the EC50 [7] is reported as > 59.7 µM (inactive). For the same compound, the EC50 [8] was > 59.7 µM (inactive) and the EC50 [9] was 18.1 µM (active).
For `CC(C)OC(=O)c1nn2c(C(F)(F)F)cc(-c3ccco3)nc2c1Cl`, the AC50 [10] was 43.9 µM (active).
With `C=CCNC(=O)c1ccccc1NC(=O)Nc1ccccc1` the AC50 [10] was 44.4 µM (active).
For `O=C(Nc1ccc(F)c(Cl)c1)c1cccnc1`, the AC50 [10] was 61.5 µM (active).
For `O=S(=O)(NC1CC1)c1ccc(S(=O)(=O)N2CCCC3(CCCCC3)C2)cc1`, the EC50 [11] was > 92.5 µM (inactive), the EC50 [12] was > 92.5 µM (inactive) and the EC50 [13] was > 92.5 µM (inactive).
With `c1cncc(CNCc2cccnc2)c1` the AC50 [14] was “inconclusive”.
In the case of `COc1ccc(NC(=O)c2sc3nc(-c4cccnc4)ccc3c2N)cc1OC`, the EC50 [15] is reported as > 300 µM (inconclusive), the EC50 [16] is reported as > 99 µM (inactive) and the EC50 [17] is reported as 115 µM (inconclusive). The EC50 [18] was 54.5 µM (inactive).
In the case of `Cc1ccc(-c2nc3sc(C#N)c(N)n3c(=O)c2C#N)cc1`, the EC50 [16] is reported as > 99 µM (inactive), the EC50 [19] is reported as 1.72 µM (active) and the EC50 [20] is reported as > 160 µM (inactive). For the same compound, the EC50 [18] was > 99 µM (inactive).
In the case of `COc1ccc(NS(=O)(=O)c2ccc(NC(=O)c3ccc(CN4CCOCC4)cc3)cc2)cc1`, the IC50 [21] is reported as 2.94 µM (active), the IC50 [1] is reported as 5.35 µM (active) and the IC50 [2] is reported as 7.65 µM (active). For the same compound, the IC50 [3] was > 20 µM (inactive), the EC50 [22] was > 29.9 µM (inactive) and the EC50 [4] was 4.22 µM (active).
In the case of `CCc1ccc(NC(=O)CCn2nc(C)c(S(=O)(=O)N3CCCCC3)c2C)cc1`, the EC50 [7] is reported as > 59.7 µM (inactive) and the EC50 [8] is reported as > 59.7 µM (inactive).
With `O=C1C=CC(O)C2(CO)OC12` (stereo unspecified) the EC50 [7] was > 59.6 µM (inactive) and the EC50 [8] was > 59.6 µM (inactive).
For `COc1ccc(-c2nc(CN3CCC(C(=O)NC4CCCc5ccccc54)CC3)c(C)o2)cc1OC` (stereo unspecified), the EC50 [11] was > 92.4 µM (inactive), the EC50 [12] was 20.8 µM (inactive) and the EC50 [13] was > 92.4 µM (inactive).
For `CC(C)C(=O)N/N=C/c1ccc(OCc2ccccc2)cc1`, the AC50 [14] was “inconclusive”, the AC50 [23] was 15.8 µM (inconclusive) and the AC50 [24] was 10 µM (inconclusive). The AC50 [25] was “inconclusive”.
